Positions of bridges follow the written chain, without caps; N, C: chain ends. Non-standard residues stand in square brackets, D forms with d. Chains are numbered I, II in the order given. No end group written: not given here.
Tests used:
[1] = target: T1, CXCR4 W94A (Homo sapiens, UniProt P61073, W94A); experiment: Competitive binding to CXCR4 mutant W94A (12G5, CHO cells); conditions: TM2, class of reduction vs wild-type CXCR4, 12G5 competition, averages of at least three independent experiments
T1 construct: expressed in transfected cells
T1 sequence (P61073 whole entry W94A): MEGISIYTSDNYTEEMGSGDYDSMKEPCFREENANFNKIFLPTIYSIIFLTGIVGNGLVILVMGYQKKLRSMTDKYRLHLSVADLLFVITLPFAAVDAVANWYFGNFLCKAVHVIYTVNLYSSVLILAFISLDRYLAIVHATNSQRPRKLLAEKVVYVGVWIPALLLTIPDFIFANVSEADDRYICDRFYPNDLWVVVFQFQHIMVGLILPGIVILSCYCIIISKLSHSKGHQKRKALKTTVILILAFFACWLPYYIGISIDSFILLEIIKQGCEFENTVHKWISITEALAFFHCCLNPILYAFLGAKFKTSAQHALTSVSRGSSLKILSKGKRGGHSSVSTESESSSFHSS
Procedure: (§1) Plasmid pcDNA3-CXCR4 and mutated pcDNA3-CXCR4 were extracted and transfected into CHO cells using Lipofectamine 2000 according to the manufacturer’s guidelines. The selective medium containing G418 at a concentration of 1.2 mg/ml was applied to isolate stably transfected cells. CHO cells expressing wild-type CXCR4 and mutant CXCR4 were obtained using fluorescence-activated cell sorting (FACS).
(§2) All of the CXCR4 mutants were prepared using PCR technology. Briefly, pairs of asymmetrical primers containing the desired amino acid mutations (Supplementary Tables S1 and S2), each complementary to opposite strands of the pcDNA3–CXCR4, were designed for amplification by Q5® High-Fidelity DNA polymerase and the generation of mutated constructs. The methylated pcDNA3–CXCR4 templates were digested by DpnI. The mutated pcDNA3–CXCR4 was transformed into competent E. coli TOP10 for long-term storage and amplification.
(§3) The procedure for the CXCR4 competitive binding experiments was published previously. Briefly, CXCR4 antibody 12G5 (250 ng/ml) was incubated with 5 × 10^5 cells and varying concentrations of unlabeled compounds in a final volume of 100 μl of assay buffer (PBS with 0.5% BSA and 0.05% NaN3) in 96-well plates for 40 min on ice, after being washed with assay buffer once. The cells were incubated with FITC-conjugated second antibody IgG for 30 min on ice, then washed with assay buffer three times. The fluorescence intensity was measured for excitation at 485 nm and emission at 535 nm using multimode plate reader (PerkinElmer). The IC50 values were calculated using graphpad Prism 7. Experiments were performed at least three times.

[2] = target: T2, CXCR4 Q200A (Homo sapiens, UniProt P61073, Q200A); experiment: Competitive binding to CXCR4 mutant Q200A (12G5, CHO cells); set-up: key to the marks not given beside the values; conditions: TM5, class of reduction vs wild-type CXCR4, 12G5 competition, averages of at least three independent experiments
T2 construct: expressed in transfected cells
T2 sequence (P61073 whole entry Q200A): as the sequence (P61073 whole entry W94A) above, with A94W, Q200A counted along it
Procedure: as §1, §2, §3

[3] = target: T3, CXCR4 Y256A (Homo sapiens, UniProt P61073, Y256A); experiment: Competitive binding to CXCR4 mutant Y256A (12G5, CHO cells); conditions: TM6, class of reduction vs wild-type CXCR4, 12G5 competition, averages of at least three independent experiments
T3 construct: expressed in transfected cells
T3 sequence (P61073 whole entry Y256A): as the sequence (P61073 whole entry W94A) above, with A94W, Y256A counted along it
Procedure: as §1, §2, §3

[4] = target: T4, CXCR4 R30A (Homo sapiens, UniProt P61073, R30A); experiment: Competitive binding to CXCR4 mutant R30A (12G5, CHO cells); set-up: key to the marks not given beside the values; conditions: TM1, class of reduction vs wild-type CXCR4, 12G5 competition, averages of at least three independent experiments
T4 construct: expressed in transfected cells
T4 sequence (P61073 whole entry R30A): as the sequence (P61073 whole entry W94A) above, with R30A, A94W counted along it
Procedure: as §1, §2, §3

[5] = target: T5, CXCR4 W252A (Homo sapiens, UniProt P61073, W252A); experiment: Competitive binding to CXCR4 mutant W252A (12G5, CHO cells); conditions: TM6, class of reduction vs wild-type CXCR4, 12G5 competition, averages of at least three independent experiments
T5 construct: expressed in transfected cells
T5 sequence (P61073 whole entry W252A): as the sequence (P61073 whole entry W94A) above, with A94W, W252A counted along it
Procedure: as §1, §2, §3

[6] = target: T6, CXCR4 I259A (Homo sapiens, UniProt P61073, I259A); experiment: Competitive binding to CXCR4 mutant I259A (12G5, CHO cells); set-up: key to the marks not given beside the values; conditions: TM6, class of reduction vs wild-type CXCR4, 12G5 competition, averages of at least three independent experiments
T6 construct: expressed in transfected cells
T6 sequence (P61073 whole entry I259A): as the sequence (P61073 whole entry W94A) above, with A94W, I259A counted along it
Procedure: as §1, §2, §3

[7] = target: T7, CXCR4 D262N (Homo sapiens, UniProt P61073, D262N); experiment: Competitive binding to CXCR4 mutant D262N (12G5, CHO cells); conditions: TM6, class of reduction vs wild-type CXCR4, 12G5 competition, averages of at least three independent experiments
T7 construct: expressed in transfected cells
T7 sequence (P61073 whole entry D262N): as the sequence (P61073 whole entry W94A) above, with A94W, D262N counted along it
Procedure: as §1, §2, §3

[8] = target: T8, CXCR4 E288D (Homo sapiens, UniProt P61073, E288D); experiment: Competitive binding to CXCR4 mutant E288D (12G5, CHO cells); conditions: TM7, class of reduction vs wild-type CXCR4, 12G5 competition, averages of at least three independent experiments
T8 construct: expressed in transfected cells
T8 sequence (P61073 whole entry E288D): as the sequence (P61073 whole entry W94A) above, with A94W, E288D counted along it
Procedure: as §1, §2, §3

[9] = target: T9, CXCR4 E288Q (Homo sapiens, UniProt P61073, E288Q); experiment: Competitive binding to CXCR4 mutant E288Q (12G5, CHO cells); conditions: TM7, class of reduction vs wild-type CXCR4, 12G5 competition, averages of at least three independent experiments
T9 construct: expressed in transfected cells
T9 sequence (P61073 whole entry E288Q): as the sequence (P61073 whole entry W94A) above, with A94W, E288Q counted along it
Procedure: as §1, §2, §3

[10] = target: T10, CXCR4 N119A (Homo sapiens, UniProt P61073, N119A); experiment: Competitive binding to CXCR4 mutant N119A (12G5, CHO cells); conditions: TM3, class of reduction vs wild-type CXCR4, 12G5 competition, averages of at least three independent experiments
T10 construct: expressed in transfected cells
T10 sequence (P61073 whole entry N119A): as the sequence (P61073 whole entry W94A) above, with A94W, N119A counted along it
Procedure: as §1, §2, §3

[11] = target: T11, CXCR4 I284A (Homo sapiens, UniProt P61073, I284A); experiment: Competitive binding to CXCR4 mutant I284A (12G5, CHO cells); conditions: TM7, class of reduction vs wild-type CXCR4, 12G5 competition, averages of at least three independent experiments
T11 construct: expressed in transfected cells
T11 sequence (P61073 whole entry I284A): as the sequence (P61073 whole entry W94A) above, with A94W, I284A counted along it
Procedure: as §1, §2, §3

[12] = target: T12, CXCR4 D193A (Homo sapiens, UniProt P61073, D193A); experiment: Competitive binding to CXCR4 mutant D193A (12G5, CHO cells); conditions: TM4, class of reduction vs wild-type CXCR4, 12G5 competition, averages of at least three independent experiments
T12 construct: expressed in transfected cells
T12 sequence (P61073 whole entry D193A): as the sequence (P61073 whole entry W94A) above, with A94W, D193A counted along it
Procedure: as §1, §2, §3

[13] = target: T13, CXCR4 E288A (Homo sapiens, UniProt P61073, E288A); experiment: Competitive binding to CXCR4 mutant E288A (12G5, CHO cells); conditions: TM7, class of reduction vs wild-type CXCR4, 12G5 competition, averages of at least three independent experiments
T13 construct: expressed in transfected cells
T13 sequence (P61073 whole entry E288A): as the sequence (P61073 whole entry W94A) above, with A94W, E288A counted along it
Procedure: as §1, §2, §3

[14] = target: T14, CXCR4 D171A (Homo sapiens, UniProt P61073, D171A); experiment: Competitive binding to CXCR4 mutant D171A (12G5, CHO cells); conditions: TM4, class of reduction vs wild-type CXCR4, 12G5 competition, averages of at least three independent experiments
T14 construct: expressed in transfected cells
T14 sequence (P61073 whole entry D171A): as the sequence (P61073 whole entry W94A) above, with A94W, D171A counted along it
Procedure: as §1, §2, §3

[15] = target: CXCR4 (Homo sapiens, UniProt P61073); experiment: SDF-1α-induced cell migration assay in SupT1 cells (transwell); assay type: cell-based; set-up: host or cells: SupT1 cells; conditions: 2 nM SDF-1α, 30 min pre-incubation, 3 h migration
Sequence of CXCR4 (Homo sapiens, UniProt P61073) (P61073 whole entry): as the sequence (P61073 whole entry W94A) above, with A94W counted along it
Procedure: Figure 2 The inhibitory effect of the antagonists on SDF-1α-induced cell chemotaxis and calcium mobilization in SupT1 cells The antagonists and concentrations used were labeled in each lane. (A) The inhibition of cell migration by the noted antagonists. SupT1 cells pre-treated with or without CXCR4 antagonists were seeded in the upper well and cell migrated by 2 nM SDF-1α. Migrated cells without SDF-1α were used as a negative (0%) and migrated cell induced by SDF-1α as a positive control (100%). […] SupT1 cells were treated with or without CXCR4 antagonists and activated by 50 nM SDF-1α. To directly compare the inhibitory effect of the antagonists on calcium mobilization, the vehicle background and baseline were removed using GraphPad and Origin. The data were averages of at least three independent experiments.
SupT1 cells (2 × 10^6 cells per well in 75 μl) were collected and washed using assay buffer (RPMI 1640 supplemented with 0.5% BSA) and incubated with various concentrations of tested compounds for 30 min in the upper well of the transwell-96 well plates with 5.0 µm pore polycarbonate membrane insert (Corning, U.S.A.). Then, 200 μl assay buffer containing 2 nM SDF-1α was added to the lower well and cells were allowed to migrate for 3 h. Migrated cells were measured using celltiter-96 reagent.

[16] = test system: CXCR4; conditions: read-out: IC50; cited from earlier work
Source text: To understand the receptor–ligand recognition mechanism involving CXCR4 and its antagonists, here in this study we conducted a series of comparative analyses of the biological activities and CXCR4 binding sites of eleven known CXCR4 antagonists, including the three mentioned above, using cell-based bioassays, CXCR4 site-directed mutagenesis and computer-aided molecular modeling. These antagonists studied here were chosen from different representative structural types including both D-peptides (i.e., HC4319, DV1, DV1 dimer, and DV3) and a representative counterpart L-peptide (i.e., V1) derived ...

LGASWHRPDKCCLGYQKRPLPQVLLSSWYPTSQLCSKPGVIFLTKRGRQVCADKSKDWVKKLMQQLPVTAR [vMIP-II, viral macrophage-inflammatory protein-II, full-length natural chemokine antagonist produced by human herpesvirus-8; recombinant from Peprotech]
Competitive receptor binding activity, CXCR4 W94A [1]: + (30–60% reduction compared with wild-type CXCR4)
Competitive receptor binding activity, CXCR4 Q200A [2]: +++
Competitive receptor binding activity, CXCR4 Y256A [3]: +++
Competitive receptor binding activity, CXCR4 R30A [4]: +++
Competitive receptor binding activity, CXCR4 W252A [5]: +++
Competitive receptor binding activity, CXCR4 I259A [6]: +++
Competitive receptor binding activity, CXCR4 D262N [7]: +++
Competitive receptor binding activity, CXCR4 E288D [8]: +++
Competitive receptor binding activity, CXCR4 E288Q [9]: ++ (10–29% reduction compared with wild-type CXCR4)
Competitive receptor binding activity, CXCR4 N119A [10]: ++ (10–29% reduction compared with wild-type CXCR4)
Competitive receptor binding activity, CXCR4 I284A [11]: +++
Competitive receptor binding activity, CXCR4 D193A [12]: ++ (10–29% reduction compared with wild-type CXCR4)
Competitive receptor binding activity, CXCR4 E288A [13]: +++
Competitive receptor binding activity, CXCR4 D171A [14]: +++
Inhibition of cell migration ([15]; at 50 nM): 64%
IC50 [16]: 5.8 nM

I: [dL]G[dA][dS][dW][dH][dR][dP][dD][dK][dC][dC][dL]G[dY][dQ][dK][dR][dP][dL][dP] / II: [dL]G[dA][dS][dW][dH][dR][dP][dD][dK][dC][dC][dL]G[dY][dQ][dK][dR][dP][dL][dP] (disulfide I:11-II:11, I:12-II:12) [DV1 dimer]
Competitive receptor binding activity, CXCR4 W94A [1]: + (30–60% reduction compared with wild-type CXCR4)
Competitive receptor binding activity, CXCR4 Q200A [2]: +++
Competitive receptor binding activity, CXCR4 Y256A [3]: +++
Competitive receptor binding activity, CXCR4 R30A [4]: +++
Competitive receptor binding activity, CXCR4 W252A [5]: +++
Competitive receptor binding activity, CXCR4 I259A [6]: +++
Competitive receptor binding activity, CXCR4 D262N [7]: + (30–60% reduction compared with wild-type CXCR4)
Competitive receptor binding activity, CXCR4 E288D [8]: ++ (10–29% reduction compared with wild-type CXCR4)
Competitive receptor binding activity, CXCR4 E288Q [9]: + (30–60% reduction compared with wild-type CXCR4)
Competitive receptor binding activity, CXCR4 N119A [10]: + (30–60% reduction compared with wild-type CXCR4)
Competitive receptor binding activity, CXCR4 I284A [11]: +++
Competitive receptor binding activity, CXCR4 D193A [12]: ++ (10–29% reduction compared with wild-type CXCR4)
Competitive receptor binding activity, CXCR4 E288A [13]: + (30–60% reduction compared with wild-type CXCR4)
Competitive receptor binding activity, CXCR4 D171A [14]: ++ (10–29% reduction compared with wild-type CXCR4)
inhibition at 2 µM ([15]; SUP-T1, at 2 μM): 43%
